Test results reported in US12371434B2, “MLL1 inhibitors and anti-cancer agents” (NOVARTIS AG, priority 2020, dated 2025).

Key:
[1] = biological target: wild type MLL1 five-member complex (MLL1-5C) (Homo sapiens, UniProt Q03164); test: MLL1 Flashplate assay; type: biochemical; details: 2.5 nM MLL1-5C, 0.5 μM 3H-SAM, 1 μM H3K4me0; read-out: MLL1 flash plate
Procedure: MLL1 Flashplate Assay To assess the compound potency in MLL1 Flashplate assay, compounds were serially diluted 3-fold in DMSO to obtain a total of twelve concentrations. Then the test compounds at each concentration (250 nL of each) were transferred by Mosquito into Corning #3675 384-well plate. Solutions (15 μL) of 4.2 nM wild type MLL1 five-member complex (MLL1-5C) in the assay buffer (20 mM Tris-HCl, pH8.0, 0.01% Tween 20, 1 mM DTT, 0.01% BSA) were added to the wells. A 10 μL solution of 2.5 μM of the peptide substrate H3K4me0 (histone H3[1-21]-Biotin) and 1.25 μM ^3H-SAM in the reaction buffer was then added to initiate each reaction. The final components in the reaction solution include 2.5 nM MLL1-5C, 0.5 μM ^3H-SAM, and 1 μM H3K4me0 with varying concentration of the compounds. A positive control consisted of 2.5 nM MLL1-5C, 0.5 μM ^3H-SAM, and 1 μM substrate in the absence of the test compound, and a negative control consisted of 0.5 μM ^3H-SAM, and 1 μM substrate only. Each reaction was incubated at rt for 90 min, then stopped by addition of 5 μL per of quench solution (0.5 mM SAM in assay buffer). 25 μL of each reaction solution was transferred to FlashPlate streptavidin 384-well microplate (PerkinElmer). After at least 1 h incubation at rt, the wells were washed three times with 0.1% Tween-20 in dH2O using the BioTek plate washer. The plates were then read in MicroBeta (PerkinElmer). The radioactive readouts were then normalized based on the values coming from the positive and negative controls to give percent enzyme activities. The data were then fit to a dose response equation using the program Helios to get the IC50 values of the test compounds.

[2] = biological target: wild type MLL1 four-member complex (MLL1-4C) (Homo sapiens, UniProt Q03164); test: MLL1 LC-MS assay; type: biochemical; details: 30 nM MLL1-4C, 2.5 μM SAM, 10 μM H3K4me0; SAH production by LC-MS/MS; read-out: MLL1 LCMS
Procedure: The compounds of the present disclosure were serially and separately diluted 3-fold in DMSO to obtain a total of eight or twelve concentrations. Then the test compounds at each concentration (120 nL of each) were transferred by Mosquito into white Proxiplate plus 384-well microplate (PerkinElmer). Solutions (6 μL) of 60 nM wild type MLL1 four-member complex (MLL1-4C) and 5 μM SAM in the reaction buffer (20 mM Tris-HCl, pH8.0, 0.01% Tween 20, 1 mM DTT, 10 mM MgCl2, 0.01% BSA) were added to the wells that were then incubated with the test compound for 20 min. A 6 μL solution of 20 μM of the peptide substrate H3K4me0 (histone H3[1-21]-Biotin) in the reaction buffer was added to initiate each reaction. The final components in the reaction solution include 30 nM MLL1-4C, 2.5 μM SAM, and 10 μM H3K4me0 with varying concentration of the compounds. A positive control consisted of 30 nM MLL1-4C, 2.5 μM SAM, and 10 μM substrate in the absence of the test compound, and a negative control consisted of 2.5 μM SAM, and 10 μM substrate only. Each reaction was incubated at rt for 120 min, then stopped by addition of 3 μL per of quench solution (2.5% TFA with 320 nM d4-SAH). The reaction mixture was centrifuged (Eppendorf centrifuge 5810, Rotor A-4-62) for 2 min at 2000 rmp. The SAH production from the enzymatic assays were monitored by LC-MS/MS on an API 4000 triple quadrupole mass spec with TurboIon Spray (Applied Biosystem) coupled with Prominenece UFLC(Shimazu). The level of SAH production were then normalized based on the values coming from the positive and negative controls to give percent enzyme activities. The data were then fit to a dose response equation using the program Helios (Novartis) to get the IC50 values of the test compounds.

[3] = tested on: H3K4me3 in MV4-11 cells; test: MV4-11 H3K4Me3 cellular ELISA assay; type: cell-based; details: Homo sapiens, 48 hours, H3K4me3 signal normalized to total H3
Procedure: MV4-11H3K4Me3 Cellular ELISA Assay
MV4-11 (ATCC® CRL-9591™) was cultured with RPMI1640 medium (Thermo Fisher Scientific, cat #11875) supplemented with 10% FBS (Thermo Fisher Scientific, cat #10099141) and 50 U/ml Penicillin-Streptomycin (Thermo Fisher Scientific, cat #10378016) in humidified incubator at 37° C., 5% CO2.
200 nL compounds dissolved in DMSO were serially diluted at 1:3 ratio for 12 points starting from 10 mM and dispensed into each wells of cell culture plates (PDL-coated ViewPlate-384 Black, FTC, PerkinElmer, #6007710). 3,750 MV4-11 cells in 40 μL culture medium were seeded into each well and treated with desired concentration for 48 hours. After treatment, wash cells with cold phosphate based buffer (PBS, pH 7.4) and aspirate the remaining PBS buffer. Crude histone lysate was extracted by 40 μL 0.5M HCl for 1 hour in 4° C. following neutralization by adding 32 μL neutralization buffer (0.5M Sodium phosphate dibasic, pH˜12.5, 1.25 mM Dithiothreitol, Promega #V3151, Protease Inhibitor Cocktail, Sigma #8340) for each well. 5 μL and 20 μL of histone lysate was loaded to ELISA plate (384 Well Plates, PE HB, White, 6005620) for detection of total H3 and H3K4me3, respectively. Shake the plates gently in 4° C. for overnight. After histone binding, plates were washed with 80 μL PBS/T (PBS with 0.05% Tween-20) and blocked with 50 μL 3% BSA diluted in PBS/T per well for 1 hour. Incubate wells with primary antibody for 1 hour at room temperature using anti-H3K4me3 (CST #9727) and anti-total H3 (CST #9715) diluted 1:2000 in 3% BSA. Plates were then washed with PBS/T for 3 times and incubated with horseradish peroxidase (HRP) conjugated secondary antibody (CST #7074, 1:5000) for 1 hour at room temperature. The abundance of H3K4me3 and total H3 were measured by ECL substrates chemiluminesce (Pierce, #34080) on a plate reader (PerkinElmer EnVison 2104 Mutilable Reader). Percentage inhibition was calculated against DMSO control after normalization of H3K4me3 signal to H3 signal for individual samples. The data were then fit to a dose response curve using GraphPad Prism for IC50 calculation.

[4] = tested on: MV4-11 cells; test: MV4-11 6-day cell growth CTG (CellTiter-Glo) assay; type: cell-based; details: Homo sapiens, 144 h, 6 days
Procedure: MV4-11 6-Day Cell Growth CTG (CellTiter-Glo) Assay
Acute myeloid leukemia cell MV4-11 (ATCC® CRL-9591™) was cultured with RPMI 1640 medium (Thermo Fisher Scientific, cat #11875) supplemented with 10% FBS (Thermo Fisher Scientific, cat #10099141) in humidified incubator at 37° C., 5% CO2. To assess the effect of MLL1 inhibition on cell growth, the compound of the present invention was dissolved in DMSO and serially diluted at 1:3 for 12 points starting from 10 mM then 200 nL for the replicate of each dose per well was dispensed to Viewplate-384 Black (Perkin Elmer). Exponentially growing MV4-11 cells were seeded at the density of 300 cells per well in 40 μL to the plate, so the final compound working concentration starts from 50 μM. After 6 days, 40 μL CellTiter-Glo (Promega, cat #G7573) was added into the cell culture well and luminescence was read with Envision (Perkin Elmer) to determine the viable cells. The percentage inhibition was calculated against the samples treated with DMSO only and the data were used for dose response curve fitting in GraphPad Prism to get the IC50 of representative compound of present invention, which reflects the inhibition of MLL1 activity.

Row | Structure (SMILES) | IC50 [1] [nM] | IC50 [2] [nM] | IC50 [4] [nM] | IC50 [3] [nM]
1 | COC[C@H](N)CCCOc1ccc(Cl)c(Cl)c1Cc1cnc2c(N)ncnn12 [Example 5, (R)-7-(6-((4-amino-5-methoxypentyl)oxy)-2,3-dichlorobenzyl)imidazo[2,1-f][1,2,4]triazin-4-amine] | > 100 | > 100 |  | > 3000
2 | COCCNC(=O)[C@H](N)CCCOc1ccc(Cl)c(Cl)c1Cn1cnc2c(N)ncnc21 [Example 41, (R)-2-amino-5-(2-((6-amino-9H-purin-9-yl)methyl)-3,4-dichlorophenoxy)-N-(2-methoxyethyl) pentanamide] |  | 50 to 100 | < 2000 | < 1900
3 | Nc1ncnc2c(Cc3c(OCCC[C@@H](N)C(=O)NC4CC4)ccc(Cl)c3Cl)cnn12 [Example 37, (R)-2-amino-5-(2-((4-aminopyrazolo[1,5-a][1,3,5]triazin-8-yl)methyl)-3,4-dichlorophenoxy)-N-cyclopropylpentanamide] | > 100 | 50 to 100 |  | > 3000
4 | COC[C@H](N)CCCOc1ccc(Cl)c(Cl)c1Cc1cnn2c(N)ncnc12 [Example 8, (R)-8-(6-((4-amino-5-methoxypentyl)oxy)-2,3-dichlorobenzyl)pyrazolo[1,5-a][1,3,5]triazin-4-amine] | > 100 | > 100 |  | > 3000
5 | COC(=O)[C@H](N)CCCOc1ccc(Cl)c(Cl)c1Cc1cnc2c(N)ncnn12 [Example 34, Methyl (R)-2-amino-5-(2-((4-aminoimidazo[2,1-f][1,2,4]triazin-7-yl)methyl)-3,4-dichlorophenoxy)pentanoate] |  | 50 to 100 | < 2000 | < 1900
6 | COC(=O)C(N)CCCOc1cc(Cl)cc(Cl)c1Cn1cnc2c(N)ncc(Cl)c21 (centres unmarked) [Example 31, Methyl 2-amino-5-(2-((4-amino-7-chloro-1H-imidazo[4,5-c]pyridin-1-yl)methyl)-3,5-dichlorophenoxy)pentanoate] |  | < 50 | < 2000 | 
7 | CC(C)COC[C@H](N)CCCOc1ccc(Cl)c(Cl)c1Cc1cnn2c(N)ncnc12 [Example 15, (R)-8-(6-((4-amino-5-isobutoxypentyl)oxy)-2,3-dichlorobenzyl)pyrazolo[1,5-a][1,3,5]triazin-4-amine] | > 100 | > 100 |  | 
8 | COC[C@@H](N)CCOc1ccc(Cl)c(Cl)c1Cc1cnn2c(N)ncnc12 [Example 17, (S)-8-(6-(3-amino-4-methoxybutoxy)-2,3-dichlorobenzyl)pyrazolo[1,5-a][1,3,5]triazin-4-amine] | > 100 | > 100 |  | 
9 | CCOC[C@H](N)CCCOc1ccc(Cl)c(Cl)c1Cc1cnn2c(N)ncnc12 [Example 16, (R)-8-(6-((4-amino-5-ethoxypentyl)oxy)-2,3-dichlorobenzyl)pyrazolo[1,5-a][1,3,5]triazin-4-amine] | > 100 | > 100 |  | > 3000

Now from value to molecule, other results behind:

Row | IC50 [1] [nM] | IC50 [2] [nM] | IC50 [4] [nM] | Structure (SMILES) | IC50 [3] [nM]
10 |  | 50 to 100 | > 3000 | COc1nc(N)c2ncn(Cc3c(Cl)cc(Cl)cc3OCCC[C@@H](N)C(=O)O)c2n1 [Example 27, (R)-2-amino-5-(2-((6-amino-2-methoxy-9H-purin-9-yl)methyl)-3,5-dichlorophenoxy)pentanoic acid] | 
11 | > 100 | 50 to 100 |  | COC[C@H](N)CCCOc1cc2ccccc2cc1Cn1cnc2c(N)ncnc21 [Example 21, (R)-9-((3-((4-amino-5-methoxypentyl)oxy)naphthalen-2-yl)methyl)-9H-purin-6-amine] | > 3000
12 | > 100 | > 100 |  | Nc1ncnc2c(Cc3c(OCCC[C@@H](N)CO)ccc(Cl)c3Cl)cnn12 [Example 44, (R)-2-amino-5-(2-((4-aminopyrazolo[1,5-a][1,3,5]triazin-8-yl)methyl)-3,4-dichlorophenoxy)pentan-1-ol] | > 3000
13 |  | 50 to 100 | > 3000 | Nc1ncnc2c1ncn2Cc1c(OCCC[C@@H](N)Cn2cccn2)ccc(Cl)c1Cl [Example 49, (R)-9-(6-((4-amino-5-(1H-pyrazol-1-yl)pentyl)oxy)-2,3-dichlorobenzyl)-9H-purin-6-amine] | 
14 |  | 50 to 100 | < 2000 | NC(=O)[C@H](N)CCCOc1ccc(Cl)c(Cl)c1Cn1cnc2c(N)ncnc21 [Example 39, (R)-2-amino-5-(2-((6-amino-9H-purin-9-yl)methyl)-3,4-dichlorophenoxy)pentanamide] | 
15 |  | 50 to 100 | < 2000 | CCOC(=O)[C@H](N)CCCOc1cc(Cl)cc(Cl)c1Cn1cnc2c(N)ncnc21 [Example 32, ethyl (R)-2-amino-5-(2-((6-amino-9H-purin-9-yl)methyl)-3,5-dichlorophenoxy)pentanoate] | 
16 | < 60 | < 50 |  | Nc1ncnn2c(Cc3c(OCCC[C@@H](N)C(=O)NC4CC4)ccc(Cl)c3Cl)cnc12 [Example 36, (R)-2-amino-5-(2-((4-aminoimidazo[2,1-f][1,2,4]triazin-7-yl)methyl)-3,4-dichlorophenoxy)-N-cyclopropylpentanamide] | > 3000
